Measured values from US7713914B2 (priority 2005, dated 2010).

Tests used:
Bacillus cereus spores = assay type: cell-based
[1] = Solubility of DPA in water; assay type: physicochemical
[2] = tested on: Bacillus anthracis endospores

## CC(O)C(=O)O (stereo not shown) [lactic acid]
Bacillus cereus spores
  SERS of DPA (CaDPA release at room temperature): observed

## O=C(O)c1cccc(C(=O)O)n1 [DPA, dipicolinic acid]
[1]
  Solubility in water: only slightly soluble

## O=CO [formic acid]
Bacillus cereus spores
  SERS of DPA (CaDPA release at room temperature): observed

## CCCCCCCCCCCCN [DDA, dodecylamine, reference compound]
Bacillus cereus spores
  Exposure required before a reasonable DPA SERS signal was observed: 1 h

## O=C(O)C(F)(F)F [trifluoroacetic acid]
Bacillus cereus spores
  SERS of DPA (CaDPA release at room temperature): observed

## CC(=O)O [glacial acetic acid, acetic acid]
[2]; Example 1, hypothetical 1000 spores, 50 microL, 1 minute
  DPA concentration calculated from 1008 cm-1 peak: 20±10 ng per 1 mL
[2]; acid dispensed onto surface
  Time in which most, if not all, of the CaDPA is released: 1 to 5 min
